Results: patent US10821152B2, “Methods, agents and compositions for treatment of inflammatory conditions” (Betanien Hospital, priority 2014, dated 2020)
Non-standard residues stand in square brackets, D forms with d. Residues, ends and D or L forms follow the SMILES beside them. *: point of attachment. dPhe(4-NHCONH2) = NC(=O)Nc1ccc(C[C@@H](N)C(=O)O)cc1; Dihydroorotyl(S) = O=C1C[C@@H](C(=O)*)NC(=O)N1; dPhe(4-Cl) = N[C@H](Cc1ccc(Cl)cc1)C(=O)O; Phe(4-NH2) = Nc1ccc(C[C@H](N)C(=O)O)cc1; d2Nal = N[C@H](Cc1ccc2ccccc2c1)C(=O)O; Lys(iPr) = CC(C)NCCCC[C@H](N)C(=O)O; d3Pal = N[C@H](Cc1cccnc1)C(=O)O

Legend:
Format in all cases: in vivo, human
[1] = tested on: patient with lithium induced psoriasis; test: Treatment of psoriasis (PASI, serum uric acid, testosterone)
Protocol: The PASI score is a standardized score for assessing disease activity in psoriasis.
He therefore received testosterone supplementation in the form of Testogel containing 50 mg of testosterone, first daily; thereafter every 3 days to maintain testosterone levels within the normal range.
There are very few trials of lithium induced psoriasis. One trial examined 15 patients with psoriasis who were taking lithium.

[2] = tested on: patient with spondyloarthritis; test: Treatment of spondyloarthritis with Degarelix (BASDAI)
Protocol: • person, diagnosed with spondyloarthritis • Fulfilled the ASAS criteria for axial radiographic spondyloarthritis. Experimental Treatment • October 2014 received first dose of Degarelix 240 mg sc. • Received Degarelix 80 mg sc every two weeks thereafter. Assessment of Response Disease activity in ankylosing spondylitis/spondyloarthritis is measured by the BASDAI (Bath Ankylosing Spondylitis Disease Activity Index^1), has been extensively validated in clinical trials^2-3, and is one of the most commonly used outcome measures in clinical trials. This is a composite index that evaluates fatigue, axial and peripheral pain, stiffness and enthesopathy. Their BASDAI was at 3.8 at baseline. In October 2014 they received their first dose of Degarelix 240 mg sc. By 2 weeks, their BASDAI had reduced to 2.9, and by 8 weeks it had reduced to 1.3, remission. At 4 months, their BASDAI continues to be low at 1.5. • Response to therapy in clinical practice is defined as improvement of 2 units or 50% on a 0-10 scale of the BASDAI, and expert opinion that the treatment should be continued. Their reduction by 4 moths was 2.3 we shall continue treatment.

[3] = Peripheral GnRH levels by ELISA in patients with autoimmune diseases; details: RA Pt A
Text: (§1) We analysed peripheral GnRH levels in patients with various autoimmune diseases using ELISA. […] Due to the nature of ELISA assays, the concentration in pg/mL should not necessarily be regarded as absolute, and may be interpreted as relative.

peripheral GnRH = test: as above
Text: as §1

[4] = tested on: patient with seropositive rheumatoid arthritis; test: Degarelix with and without Methotrexate in rheumatoid arthritis; details: RA patient
Protocol: • person with seropositive rheumatoid arthritis with disease duration of 16 years • Fulfilled ACR 2010 classification criteria for rheumatoid arthritis Experimental Treatment and Assessment of Response • Previously failed 3 biologics (Etanercept, Actemra, and Rituximab). Last tried Rituximab November 2013, but increasing disease activity and blood tests (CRP and ESR) during the months thereafter until start of Degarelix 16 Jun. 2014. Concomitantly used stable Methotrexate 10 mg weekly since 1999. • Started Degarelix 240 mg inductions dose 16 Jun. 2014, with 80 mg every 2 weeks thereafter. • Disease activity reduced and they achieved an ACR60 response by 29 Sep. 2014 under the introduction of Degarelix and stable concomitant Methotrexate and Prednisolone. • 3 Oct. 2014 the patient's pulmonary physician stopped Methotrexate treatment due to pleural thickening, and CT imaging supporting lung fibrosis which was suspected to be due to Methotrexate. The patient had dyspnea which resolved once Methotrexate was stopped. • By 21 Nov. 2014, the patients disease activity score had increased from 5.1 (29 Sep. 14) to 5.7 (21 Nov. 2014), due to the discontinuation of Methotrexate.

patient with colitis = test: Treatment of inflammatory bowel disease (fecal calprotectin, partial Mayo score)
Protocol: • person, diagnosed with colitis • Inflammatory bowel disease, colitis verified on colonic biopsy sample. Patients with inflammatory colitis usually have a higher incidence of autoimmune diseases. This patient also had ankylosing spondylitis. Experimental Treatment • September 2014 received first dose of Degarelix 240 mg sc. • Received Degarelix 80 mg sc approximately every two weeks thereafter. Assessment of Response • The inflammatory bowel diseases (IBD's), Crohn's disease and ulcerative colitis, are chronic relapsing, remitting disorders. The assessment of disease activity presents challenges to clinicians. Fecal biomarkers, such as fecal calprotectin, are a non-invasive method which can be used to aid managing clinicians. Calprotectin is released extracellularly in times of cell stress or damage and can be detected within feces and thus be used as a sensitive marker of intestinal inflammation. […] Fecal calprotectin levels are elevated in patients with both Crohn's disease and ulcerative colitis 1-2. There have been several studies looking at the use of fecal calprotectin to predict or monitor response to treatment. • In a study looking at 11 patients with relapsing IBD, fecal calprotectin was analysed at inclusion and after 8 weeks of treatment. Treatment was individualized medical therapy. A normalized fecal calprotectin concentration at 8 weeks predicted a complete response in 100% of patients,3 corresponding to endoscopic mucosal healing4. It has been shown that in patients with steroid induced clinical remission fecal calprotectin levels can remain elevated5-6. […] A level of <50 mg/kg is considered normal or remission for IBD. • There is no gold standard index in the measurement of colitis disease activity in clinical trials. Due to the invasive nature of endoscopies, the Mayo non-invasive colitis assessment of response score can be used to assess treatment effect of IBD in clinical trials9-11. […] Both the partial Mayo and total Mayo score are used to assess disease activity in clinical trials13. The partial Mayo score also had good discriminatory value between subjects in remission and those with active disease14. A clinical response has been defined as a 3 point or greater change in the partial Mayo score15.

CC(=O)N[C@H](Cc1ccc2ccccc2c1)C(=O)N[C@H](Cc1ccc(Cl)cc1)C(=O)N[C@H](Cc1cccnc1)C(=O)N[C@@H](CO)C(=O)N[C@@H](Cc1ccc(NC(=O)[C@@H]2CC(=O)NC(=O)N2)cc1)C(=O)N[C@H](Cc1ccc(NC(N)=O)cc1)C(=O)N[C@@H](CC(C)C)C(=O)N[C@@H](CCCCNC(C)C)C(=O)N1CCC[C@H]1C(=O)N[C@H](C)C(N)=O [Degarelix] (Ac-[d2Nal][dPhe(4-Cl)][d3Pal]S[Phe(4-NH2)](Dihydroorotyl(S))[dPhe(4-NHCONH2)]L[Lys(iPr)]P[dA]-NH2)
testosterone levels (normal 8-35 nmol/L) ([1]; after the first week): < 1 nmol/L
improvement in psoriasis ([1]; at 6 months): stable
Psoriasis Area Severity Index (PASI) score ([1]; baseline): 53.6
serum uric acid (230-480 umol/L) ([1]; baseline): 485 µmol/L
testosterone levels (normal 8-35 nmol/L) ([1]; before therapy): 12 nmol/L
PASI reduction ([1]; by 8 weeks): 23%
serum uric acid (230-480 umol/L) ([1]; by 8 weeks): 432 µmol/L
testosterone levels (normal 8-35 nmol/L) ([1]; week 8, under testosterone substitution (Testogel)): 9 nmol/L
BASDAI ([2]; at 4 months): 1.5
BASDAI ([2]; baseline): 3.8
BASDAI ([2]; by 2 weeks): 2.9
BASDAI ([2]; by 8 weeks (remission)): 1.3
CRP ([3]; after 3 months): 54 mg/L
DAS score ([3]; after 3 months): 4.2
CRP ([3]; baseline): 142 mg/L
DAS score ([3]; baseline): 8.6
peripheral GnRH (peripheral GnRH; Multiple Sclerosis Patient B, after 1 month): 210 pg/mL
peripheral GnRH (peripheral GnRH; Multiple Sclerosis Patient B, baseline): 318 pg/mL
peripheral GnRH (peripheral GnRH; Psoriasis Patient C, after 3 months): 274 pg/mL
peripheral GnRH (peripheral GnRH; Psoriasis Patient C, baseline): 300 pg/mL
peripheral GnRH (peripheral GnRH; RA Pt A, after 3 months, 240 mg loading, 80 mg every 2 weeks): 359 pg/mL
peripheral GnRH (peripheral GnRH; RA Pt A, baseline): 394 pg/mL
disease activity score ([4]; 21 Nov. 2014, Degarelix after Methotrexate stopped 3 Oct. 2014): 5.7
disease activity score ([4]; 29 Sep. 14, Degarelix with Methotrexate): 5.1
ACR response ([4]; by 29 Sep. 2014, with stable concomitant Methotrexate and Prednisolone): ACR60
Fecal calprotectin (<50 normal) (patient with colitis; 02.10.14): 48, normal mg/kg
Fecal calprotectin (<50 normal) (patient with colitis; 10.01.15): 32, normal mg/kg
Fecal calprotectin (<50 normal) (patient with colitis; 24.09.14 (started 10 Sep. 2014)): 79, high mg/kg
partial Mayo score (patient with colitis; at 12 weeks): 0
partial Mayo score (patient with colitis; baseline): 3
